Earlier results, collected in article PMC5812370 (Biochemistry, 2017).

What was measured:
[1] = target: uPAR·uPA protein–protein interaction (Homo sapiens, UniProt Q03405)
[2] = target: uPAR (Homo sapiens, UniProt Q03405)
Chain of uPAR (Q03405 23-305 limits assumed): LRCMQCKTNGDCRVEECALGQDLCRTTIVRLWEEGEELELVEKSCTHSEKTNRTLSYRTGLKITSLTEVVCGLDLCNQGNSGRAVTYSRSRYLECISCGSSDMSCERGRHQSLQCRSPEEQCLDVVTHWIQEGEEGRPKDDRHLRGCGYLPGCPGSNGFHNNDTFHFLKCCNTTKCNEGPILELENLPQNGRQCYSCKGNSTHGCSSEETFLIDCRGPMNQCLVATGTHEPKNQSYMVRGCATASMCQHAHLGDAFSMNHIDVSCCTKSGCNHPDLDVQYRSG

Chain of uPAR·uPA protein–protein interaction (Q03405 23-305 limits assumed): as above

## O=C(O)c1cccc(Nc2cc(N3CCCCCC3)c3noc4c3c2C(=O)c2ccccc2-4)c1 [Compound 2]
[1]
  IC50 for inhibition of the uPAR·uPA complex (in words): single-digit micromolar
[2]
  binding affinity to uPAR (in words): submicromolar
